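Tested at 5 concentrations; 48 h exposure; 96-well plates; endpoints linearly interpolated, else capped at highest concentration. Abbreviation: GI50, concentration required for 50% inhibition of growth.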 Calls of active or inactive are those of the source. Cut-off read from the data, not from the text of the source: active = GI50 up to about 1.1 µM and inactive = higher.

The values below come from ChEMBL document CHEMBL1201862, “PubChem BioAssay data set” (2004).

Among the test systems are OVCAR-8; CCRF-CEM; SNB-19; HOP-62; A498; HCT-116; NCI-H23; SW-620; COLO 205; EKVX; U-251; K562; NCI-H460; SK-OV-3; SK-MEL-2; SK-MEL-28; HL-60; MDA-N; MDA-MB-435; BT-549.
What all share (test): inhibition of tumour cell growth, NCI panel, 48 h

As to `O=C(/C=C/c1ccc(Cl)c(Cl)c1)c1ccc2ccccc2c1`, the GI50 in the assay on OVCAR-8, in the assay on CCRF-CEM, in the assay with SNB-19, in the assay on HOP-62, in the assay on A498 and with HCT-116 was > 100 µM (inactive) throughout. Also, the GI50 with NCI-H23 is > 100 µM (inactive); in the assay on SW-620 it was > 100 µM (inactive); in the assay on COLO 205, 13.6 µM (inactive); in the assay with EKVX it was > 100 µM (inactive); in the assay with U-251, > 100 µM (inactive); with K562, > 100 µM (inactive). Moreover, the GI50 is 37.7 µM (inactive) in the assay on NCI-H460; > 100 µM (inactive) in the assay on SK-OV-3; > 100 µM (inactive) in the assay on SK-MEL-2; > 100 µM (inactive) in the assay with SK-MEL-28; 32.7 µM (inactive) with HL-60.

On to `COCC1OC([P+](c2ccccc2)(c2ccccc2)c2ccccc2)CC(OC)C1OC` (configuration not stated), for which the GI50 is 28.8 µM (inactive) in the assay on OVCAR-8; 34.7 µM (inactive) in the assay on SNB-19; 37.2 µM (inactive) with A498; 32.6 µM (inactive) with HCT-116; 48.6 µM (inactive) in the assay on NCI-H23; 35.5 µM (inactive) with SW-620. Further, the GI50 in the assay on EKVX is 42.6 µM (inactive); in the assay on U-251 it was 35.6 µM (inactive); with MDA-N it was 37.2 µM (inactive); in the assay with K562, 34.2 µM (inactive); with SK-OV-3, 32.6 µM (inactive); with SK-MEL-2 it was 24.1 µM (inactive). Besides, the GI50 with SK-MEL-28 is 68.1 µM (inactive); with MDA-MB-435 it was 29.6 µM (inactive).

Consider `S=c1nc(N/N=C/c2cccs2)c2cn[nH]c2[nH]1`, for which the GI50 in the assay on OVCAR-8 was 25.6 µM (inactive); in the assay with SNB-19 it was 58.2 µM (inactive); in the assay on HOP-62, 23.2 µM (inactive); in the assay on A498 it was 4.02 µM (inactive); with HCT-116 it was 16.2 µM (inactive); with NCI-H23, 21.2 µM (inactive). The GI50 with SW-620 was 37.1 µM (inactive); in the assay on COLO 205 it was 6.87 µM (inactive); with EKVX, 31.9 µM (inactive); in the assay with U-251, 25.1 µM (inactive); in the assay with BT-549, > 100 µM (inactive); in the assay with K562 it was 16.3 µM (inactive). The GI50 with NCI-H460 is 0.134 µM (active); with SK-OV-3, > 100 µM (inactive); with SK-MEL-2, 58.2 µM (inactive); in the assay on SK-MEL-28, 46.7 µM (inactive); in the assay on MDA-MB-435 it was 16.3 µM (inactive); in the assay with HL-60 it was 76.4 µM (inactive).

Regarding `CC1=C2CN(C(=O)OCC(C)C)CCC2C2=C(C(=O)c3ccccc3C2=O)C1C` (configuration not stated), the GI50 is > 10 µM (inactive) in the assay with OVCAR-8; > 10 µM (inactive) with CCRF-CEM; > 10 µM (inactive) in the assay on HOP-62; 6.53 µM (inactive) in the assay on NCI-H23; > 10 µM (inactive) with SW-620; > 10 µM (inactive) in the assay with COLO 205. Also, the GI50 in the assay with EKVX, in the assay with MDA-N, with K562, in the assay on SK-OV-3, with SK-MEL-28 and with MDA-MB-435 was > 10 µM (inactive) each time. The GI50 in the assay with HL-60 is > 10 µM (inactive).

As for `Cc1cccc(/N=C/C=C(\Cl)c2ccc3ccccc3c2)c1`, the GI50 in the assay with OVCAR-8 was 18.4 µM (inactive); in the assay on CCRF-CEM, 4.15 µM (inactive); with SNB-19, 13.9 µM (inactive); in the assay with HOP-62 it was 17 µM (inactive); with A498 it was > 100 µM (inactive); in the assay on HCT-116 it was 2.98 µM (inactive). The GI50 in the assay on NCI-H23 was 13.9 µM (inactive); in the assay with SW-620 it was 9.46 µM (inactive); in the assay with COLO 205 it was 17.9 µM (inactive); in the assay with EKVX, 39.5 µM (inactive); in the assay with U-251 it was 14.8 µM (inactive); with BT-549 it was 19.1 µM (inactive). Also, the GI50 in the assay with K562 was 12.6 µM (inactive); with NCI-H460, 28.4 µM (inactive); in the assay with SK-OV-3, 23.4 µM (inactive); with SK-MEL-2, 22.9 µM (inactive); with SK-MEL-28, 17.5 µM (inactive); in the assay on MDA-MB-435, 18.1 µM (inactive). The GI50 with HL-60 is 11.4 µM (inactive).

For `COc1cccc2c1C1=CC(=O)CCC1C(C)(C)O2` (configuration not stated), the GI50 in the assay on OVCAR-8 is > 100 µM (inactive); with CCRF-CEM, 56.4 µM (inactive); in the assay on SNB-19, > 100 µM (inactive); in the assay on HOP-62, > 100 µM (inactive); in the assay on A498, > 100 µM (inactive); with HCT-116, 47.6 µM (inactive). Moreover, the GI50 in the assay with NCI-H23 is > 100 µM (inactive); in the assay with SW-620, 13.4 µM (inactive); in the assay with COLO 205 it was 67.6 µM (inactive); in the assay with EKVX, > 100 µM (inactive); in the assay with U-251 it was 45.3 µM (inactive); with K562, > 100 µM (inactive). The GI50 in the assay on NCI-H460 was 35.9 µM (inactive); in the assay with SK-OV-3, > 100 µM (inactive); in the assay on SK-MEL-2, > 100 µM (inactive); in the assay on SK-MEL-28, > 100 µM (inactive); in the assay on HL-60, 60 µM (inactive).

As for `COc1ccc(C=C2C(=O)NC(=S)NC2=O)c2ccccc12`, the GI50 in the assay with OVCAR-8 was 33.4 µM (inactive); in the assay with CCRF-CEM, 32.4 µM (inactive); with HOP-62, 30.4 µM (inactive); with A498 it was 0.224 µM (active); in the assay on HCT-116 it was 40 µM (inactive); in the assay on NCI-H23, 32.8 µM (inactive). The GI50 in the assay on SW-620 is 33.4 µM (inactive); with EKVX, 82 µM (inactive); in the assay with U-251, 27.6 µM (inactive); in the assay with MDA-N, 18.1 µM (inactive); with K562 it was 43.4 µM (inactive); in the assay on NCI-H460, 12 µM (inactive). The GI50 in the assay on SK-OV-3 was 37.1 µM (inactive); in the assay on SK-MEL-2, 21.2 µM (inactive); in the assay on SK-MEL-28 it was 57.8 µM (inactive); with MDA-MB-435 it was 27 µM (inactive); in the assay on HL-60 it was 24.3 µM (inactive).

For `O=C(Nc1ccc(Cl)cc1)c1cc2c(cc1Cl)Sc1nccn1S2(=O)=O`, the GI50 in the assay on OVCAR-8 is 51.3 µM (inactive); with CCRF-CEM, > 100 µM (inactive); in the assay on SNB-19, 44.4 µM (inactive); in the assay with HOP-62, 33.7 µM (inactive); with A498, 29.6 µM (inactive); in the assay with HCT-116 it was 34.6 µM (inactive). The GI50 in the assay with SW-620 was 27.5 µM (inactive); with COLO 205 it was > 100 µM (inactive); in the assay on EKVX, 69 µM (inactive); in the assay with U-251 it was 10.7 µM (inactive); in the assay on MDA-N it was 28.8 µM (inactive); in the assay on K562, 14.1 µM (inactive). The GI50 in the assay with NCI-H460 was 42.5 µM (inactive); in the assay with SK-OV-3 it was 64 µM (inactive); with SK-MEL-2 it was > 100 µM (inactive); with SK-MEL-28, 40.5 µM (inactive); with MDA-MB-435, 4.42 µM (inactive).

With `COc1ccc(O)c(/C=N\Nc2ccccc2)c1`, the GI50 in the assay on OVCAR-8 is 22.1 µM (inactive); in the assay with SNB-19, 30.8 µM (inactive); in the assay on HOP-62, 44.7 µM (inactive); in the assay on A498, 15.5 µM (inactive); with HCT-116, 22.6 µM (inactive); in the assay on NCI-H23 it was 10.3 µM (inactive). Besides, the GI50 in the assay on SW-620 is 5.41 µM (inactive); in the assay with COLO 205 it was 10.6 µM (inactive); in the assay with EKVX it was 39.7 µM (inactive); with U-251, 26.2 µM (inactive); in the assay on BT-549, 6.32 µM (inactive); with K562 it was 3.19 µM (inactive). In addition, the GI50 in the assay on NCI-H460 is 4.79 µM (inactive); in the assay with SK-OV-3, > 100 µM (inactive); in the assay with SK-MEL-2, 4.8 µM (inactive); in the assay on SK-MEL-28 it was 25.4 µM (inactive); in the assay on MDA-MB-435, 3.67 µM (inactive); with HL-60 it was 3.17 µM (inactive).

For `C=C/C=C(\NC(=O)C(Cl)(Cl)Cl)[Si](C)(C)C`, the GI50 in the assay with OVCAR-8, in the assay on CCRF-CEM, with SNB-19, in the assay on HOP-62, with A498 and with HCT-116 was > 100 µM (inactive) in each case. Also, the GI50 in the assay with NCI-H23, in the assay with SW-620, in the assay with COLO 205, with EKVX, in the assay with U-251 and in the assay with K562 was > 100 µM (inactive) each time. The GI50 in the assay on NCI-H460, with SK-OV-3, in the assay with SK-MEL-2, with SK-MEL-28 and with HL-60 was > 100 µM (inactive) in each case.

Take `O=C1/C(=C/c2cccc(F)c2)CCCc2ccccc21`: the GI50 with OVCAR-8 was 15.8 µM (inactive); in the assay on CCRF-CEM, 15.5 µM (inactive); with SNB-19, 16 µM (inactive); with HOP-62, 14.3 µM (inactive); with HCT-116, 15.6 µM (inactive); with NCI-H23, 20.4 µM (inactive). In addition, the GI50 was 16.9 µM (inactive) in the assay on SW-620; 20.3 µM (inactive) with COLO 205; 15 µM (inactive) in the assay with EKVX; 16.2 µM (inactive) in the assay with U-251; 17.6 µM (inactive) with BT-549; 15.1 µM (inactive) in the assay on K562. In addition, the GI50 in the assay on NCI-H460 was 17.4 µM (inactive); in the assay on SK-OV-3, 27.2 µM (inactive); with SK-MEL-2, 16.2 µM (inactive); with SK-MEL-28, 16.6 µM (inactive); in the assay on MDA-MB-435, 16.2 µM (inactive); with HL-60 it was 21.5 µM (inactive).

`Cc1c2cc[n+](C)cc2c(C)c2c1[nH]c1ccc(O)c(OCC(F)(F)F)c12`: the GI50 was 1.85 µM (inactive) in the assay on OVCAR-8; 4.97 µM (inactive) in the assay with CCRF-CEM; 0.218 µM (active) in the assay on SNB-19; 1.12 µM (inactive) with HOP-62; 10.8 µM (inactive) in the assay on A498; 4.97 µM (inactive) in the assay on HCT-116. Further, the GI50 was 0.984 µM (active) in the assay with NCI-H23; 6.67 µM (inactive) with SW-620; 1.77 µM (inactive) in the assay with COLO 205; 2.68 µM (inactive) in the assay with EKVX; 0.301 µM (active) with U-251; 2.39 µM (inactive) in the assay with K562. Moreover, the GI50 with NCI-H460 is 1.51 µM (inactive); in the assay with SK-OV-3, 6.75 µM (inactive); with SK-MEL-2, 4.63 µM (inactive); with SK-MEL-28, 5.65 µM (inactive); in the assay with HL-60, 2.5 µM (inactive).
